# Laboratory results taken from PMC3425544, “The S100A10 Subunit of the Annexin A2 Heterotetramer Facilitates L2-Mediated Human Papillomavirus Infection” (PLoS ONE, 2012).
# Assays:
# [1] = system: annexin A2; experiment: EPR binding of L2 peptide to annexin A2
# Method: Recombinant annexin A2 was expressed in BL21(DE3) Escherichia coli cells and purified using reversible Ca^2+-dependent binding to negatively charged phospholipid vesicles followed by size exclusion chromatography. A pET23A vector containing the S100A10 sequence (a gift from Volker Gerke) was expressed in BL21(DE3) cells as previously described. Both proteins were stored at 4°C in 20 mM HEPES buffer at pH 7.4, containing 100 mM NaCl with the addition of 1 mM dithiothreitol. Concentrations of all proteins and peptides, including the A2t complex, were determined using bicinchoninic acid assays (Pierce Thermo Scientific, Rockford, IL) compared to measured absorbance of albumin standards at 562 nm. Purified annexin A2 and S100A10 were combined at a molar ratio of 1∶1 and concentrated to over 8 µg/µl. The mixture was incubated overnight at 4°C, and then loaded onto a superdex 200 10/300 GL (GE Healthcare USA) column equilibrated in the previously mentioned HEPES buffer. The eluted A2t peak was collected and subjected to peptide binding assays.
# The L2_108–126 peptides used in our EPR studies were synthesized with a cysteine at the N-terminus, and followed by a spacer of 3 physiological amino acids (C-IVS) preceding the canonical L2_108–126 and L2 scrambled sequences (C-IVS-[…] and C-IVS-[…] respectively). Peptides were combined with 8× molar excess paramagnetic label (1-oxyl-2, 2, 5, 5-tetramethyl-Δ3-pyrroline-3-methyl) (R1) methanethiosulfonate (MTSL), (Toronto Research Chemicals, Canada) and left to react overnight at 4°C. Free label was removed by gel filtration (PD10 GE, United Kingdom). All peptides were solubilized into HEPES buffer. For competition assays, the scrambled peptide was non-paramagnetic labeled with an N-acetylated MTSL paramagnetic-label analog (1-acetyl-2,2,5,5- tetramethyl-Δ3-pyrroline-3-methyl) (R1′) at an 8× molar excess to emulate the paramagnetic label on control peptides. Binding interactions were examined by combining paramagnetically-labeled L2 peptide with A2t, BSA, ANXA2, or S100A10 (20 µM, 100 µM, 100 µM, 100 µM, and 100 µM respectively) in 10 µL volumes of the HEPES buffer, confined by glass capillaries, and measured at room temperature over a period of 24 hours using a Bruker EMX X-band EPR spectrometer. For the cysteine blocked S100A10, S100A10 was treated with R1′ and excess label was removed via gel filtration (see above) before the addition of paramagnetic labeled peptides. […] To quantify the amount of bound peptide spectra of all tested proteins in combination with the L2_108–126 or ScrL2 peptides were compared to the spectra of L2_108–126 or ScrL2 peptides alone in solution using a spectra analyzing software (EPR 130, University of California, Los Angeles). […]
# [2] = system: HepG2 cell line; conditions: ref [28]; cited from earlier work
# Source text: Nonetheless, the link between HSV and H ...
# [3] = system: Bovine Serum Albumin (BSA); experiment: EPR binding of L2 peptide to BSA (specificity control); conditions: 20 µM peptide, 100 µM BSA
# Source text: The L2_108–126 peptides used in our EPR studies were synthesized with a cysteine at the N-terminus, and followed by a spacer of 3 physiological amino acids (C-IVS) preceding the canonical L2_108–126 and L2 scrambled sequences (C-IVS-LVEETSFIDAGAPTSVPSI and C-IVS-IESPVSDTALGTPEIFVSA respectively). Peptides were combined with 8× molar excess paramagnetic label (1-oxyl-2, 2, 5, 5-tetramethyl-Δ3-pyrroline-3-methyl) (R1) methanethiosulfonate (MTSL), (Toronto Research Chemicals, Canada) and left to react overnight at 4°C. Free label was removed by gel filtration (PD10 GE, United Kingdom). All peptides were solubilized into HEPES buffer. […] Binding interactions were examined by combining paramagnetically-labeled L2 peptide with A2t, BSA, ANXA2, or S100A10 (20 µM, 100 µM, 100 µM, 100 µM, and 100 µM respectively) in 10 µL volumes of the HEPES buffer, confined by glass capillaries, and measured at room temperature over a period of 24 hours using a Bruker EMX X-band EPR spectrometer. […] To quantify the amount of bound peptide spectra of all tested proteins in combination with the L2_108–126 or ScrL2 peptides were compared to the spectra of L2_108–126 or ScrL2 peptides alone in solution using a spectra analyzing software (EPR 130, University of California, Los Angeles). […]
substance,measurement,setting,value
"C-IVS-LVEETSFIDAGAPTSVPSI [L2_108–126, HPV16 L2 aa 108–126 peptide with N-terminal cysteine and IVS spacer]",relative % bound to annexin A2,"[1]; 20 µM peptide, 100 µM ANXA2, mean of three separate experiments",23.6%
same,interaction with annexin A2 subunit,[1]; discussion,minimal interaction
same,relative % bound to annexin A2 in presence of ScrL2,"[1]; scrambled peptide 5∶1, mean of three separate experiments",17.7%
same,binding to A2t-deficient HepG2 cells vs cervical cancer cell lines,[2],bind significantly less
same,binding to BSA,[3],does not bind BSA in a significant manner
